Patent US5610282A (The United States of America as represented by the …, priority 1995, dated 1997)

Biological target: T1, D1 dopamine receptor (Rattus norvegicus, UniProt P18901)
T1 construct: The longest open reading frame in this cDNA codes for a 487 residue protein; expressed in transfected cells; host or cells: COS-7 cells (transient, plasmid pSRalpha-D1)
Type: cell-based
Conditions: agonist 1 uM, with 0.5 uM propranolol

T1 sequence (P18901 whole entry): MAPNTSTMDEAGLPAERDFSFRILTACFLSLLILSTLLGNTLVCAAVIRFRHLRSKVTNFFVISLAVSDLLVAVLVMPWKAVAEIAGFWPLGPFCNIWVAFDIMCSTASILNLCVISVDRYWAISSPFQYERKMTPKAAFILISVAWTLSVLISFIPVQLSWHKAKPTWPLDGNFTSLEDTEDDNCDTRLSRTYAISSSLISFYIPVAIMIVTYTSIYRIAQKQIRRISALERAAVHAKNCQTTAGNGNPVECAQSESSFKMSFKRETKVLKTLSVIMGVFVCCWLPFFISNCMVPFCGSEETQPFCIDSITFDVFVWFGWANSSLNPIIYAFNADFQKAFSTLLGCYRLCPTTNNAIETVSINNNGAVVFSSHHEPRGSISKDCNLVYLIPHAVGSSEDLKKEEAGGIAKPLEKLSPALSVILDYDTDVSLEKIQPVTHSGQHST

| Structure (SMILES) | stimulation of cAMP accumulation (in words) |
| --- | --- |
| Oc1cc2c(cc1O)C(c1ccccc1)CNCC2 (stereo not drawn) [SKF-38393 (-)isomer, SKF-38393] | lower potency |
| CNC[C@H](O)c1ccc(O)c(O)c1 [epinephrine] | low potency relative to dopamine |
